This note sets out measurements from patent publication US20250134907A1, “FUSED DIAZEPINES AS AGONISTS OF THE INSULIN-LIKE 3 (INSL3) PEPTIDE RECEPTOR RXFP2 AND METHODS OF USE THEREOF” (The United States of America,as represented by the …, priority 2022, published 2025).

For assay [1], the system named is 320 GPCR Tango constructs. The assay is described as follows: PRESTO-Tango GPCRome counter-screen (beta-arrestin recruitment) in transiently transfected HTLA cells. The assay is classed as cell-based. Particulars: 10 μM compound, 320 GPCRs. The method, then: The PRESTO-Tango GPCRome assay, which measures G-protein coupled receptors (GPCR) mediated beta-arrestin recruitment, was used to perform a HTS of related GPCRs to study specificity and selectivity of the RXFP2 agonists. A total of 320 GPCR Tango constructs were tested. Each of the GPCR constructs used in the assay contained a FLAG tag, the GPCR gene of interest, a Vasopressin 2 C-terminal tail, the TEV protease cleavage site, and the tetracycline-controlled transactivator (tTA) transcription factor. The assay was performed using transiently transfected HTLA cells that stably express the beta-arrestin2-TEV protease fusion protein and a luciferase reporter gene under the control of the tTA transcription factor. Ligand activation of the transfected GPCR construct induces beta-arrestin translocation to the GPCR, where the tobacco etch virus (TEV) protease cleaves the tTA transcription factor, causing activation of luciferase transcription in the nucleus. Thus, luciferase activity in these cells is proportional to beta-arrestin translocation activity. For this assay, HTLA cells were seeded in Poly-L-Lys (PLL)-coated 384-well white clear-bottom plates at 10,000 cell/well in 40 μl/well DMEM supplemented with 10% FBS. […] Plates were incubated for 20 minutes at room temperature protected from light and the luminescence signal was read on a MicroBeta counter (PerkinElmer, Waltham, MA). […]
(A counterscreen serves to expose hits that act by an unwanted route or on another target.)

For assay [2], the system named is trabecular bone of L3 vertebrae. Nature of the assay: Bone anabolic study, microCT of L3 vertebrae. The format is in vivo, C57BL/6J female mice. Particulars: 10 mg/kg oral gavage every other day, 8 weeks, vs vehicle.
For assay [3], the system named is chimera RXFP2-1 (extracellular domain of RXFP2, transmembrane domain of RXFP1). Nature of the assay: HTRF cAMP assay in HEK293T cells transiently transfected with chimera RXFP2-1. The format is cell-based, human. The source says: To further investigate the involvement of the RXFP2 extracellular and transmembrane domains in agonist activation of the receptor, two complementary chimeras were created using the RXFP1 receptor, which is not activated by the agonists of formula (I), to transiently transfect HEK293T cells and measured changes in cAMP induction using the HTRF assay.
Chimeric receptors were generated by IN-FUSION™ (Takara Bio USA, Inc., San Jose, CA) mutagenesis using full-length human RXFP1 and RXFP2 receptor constructs. Polymerase chain reaction (PCR) was performed using PfuTurbo high-fidelity DNA polymerase (Agilent Technologies, Santa Clara, CA) and overlapping primers with at least 15 bp sequence homology within the fusion site. PCR products were digested with Dpnl restricton enzyme at 37° C. overnight, run on a 0.8% agarose gel and purified using the GENEJET™ Gel extraction kit (Thermo Scientific, Waltham, MA). The purified DNA fragments were then ligated into the BamHI and XhoI pre-digested pcDNA3.1™/Zeo(+) AmpR mammalian expression vector using the In-Fusion HD enzyme premix (Clontech, Mountain View, CA) at 50° C. for 15 minutes, and the resulting product was used to transform Stellar competent cells (Takara Bio USA, Inc., San Jose, CA). The clones were fully sequenced to confirm the correct fusion of both receptor fragments. Chimera RXFP2-1 contained the extracellular domain of RXFP2 and the transmembrane domain of RXFP1. Accordingly, chimera RXFP1-2 contained the extracellular domain of RXFP1 and the transmembrane domain of RXFP2.
HEK293T cells were seeded in 6-well flat-bottom clear plates at 0.5 million cells/well in 2 mL/well of growth medium (DMEM, 10% FBS, 1× Pen/Strep) and allowed to attach overnight at 37° C. and 5% CO2. The next morning, cells were transfected with 2 μg of plasmid (chimeric receptors, WT RXFP2, or WT RXFP1) and 6 μl of Lipofectamine2000 (Invitrogen, Waltham, MA) in a total volume of 200 μl/well OPTI-MEM™ I (Thermo Fisher, Waltham, MA) reduced serum medium and allowed to incubate an additional 24 hours. The next day, transfected cells were seeded in 96-well flat-bottom opaque plates at 30,000 cells/well in 60 μL/well of serum-free DMEM medium and allowed to attach overnight at 37° C. at 5% CO2. The next morning, cells were treated with 1 μL/well of compound (25 μM-0.25 nM), 2 μM forskolin, or DMSO vehicle. Cells were also treated with 4 μL of positive control INSL3 (100-0.01 nM), Relaxin2 (100-10 nM), or vehicle (serum-free DMEM+IBMX). Plates were incubated for 1 hour at 37° C. and 5% CO2, after which kit cAMP-d2 and anti-cAMP antibody were added as previously described. Cells were incubated for 1 hour at room temperature, and then the signal was read on a CLARIOstar plate reader (BMG Labtech, Germany).

As to `O=C1Nc2ccc(-c3cc(C(F)(F)F)cc(C(F)(F)F)c3)cc2C(=O)N2CCN(C(=O)COc3ccc(OC(F)(F)F)cc3Br)C[C@@H]12` [Example 158, (S)-8-(3,5-Bis(trifluoromethyl)phenyl)-2-(2-(2-bromo-4-(trifluoromethoxy)phenoxy)acetyl)-1,3,4,12a-tetrahydrobenzo[e]pyrazino[1,2-a][1,4]diazepine-6,12 (2H, 11H)-dione], in assay [1], the “GPCR agonist hits (minimum 3.0-fold RLU of basal)” value is listed as “very few GPCR hits”.
For the compound `O=C1Nc2ccc(-c3cc(C(F)(F)F)cc(C(F)(F)F)c3)cc2C(=O)N2CCN(C(=O)COc3ccc(OC(F)(F)F)cc3I)C[C@@H]12` [Example 187, (S)-8-(3,5-bis(trifluoromethyl)phenyl)-2-(2-(2-iodo-4-(trifluoromethoxy)phenoxy)acetyl)-1,3,4,12a-tetrahydrobenzo[e]pyrazino[1,2-a][1,4]diazepine-6,12 (2H, 11H)-dione], in assay [2], the “bone volume per tissue volume (BV/TV)” value is “small non-significant improvement”, the “trabecular number (Tb.N)” value is given as “significant increase”, the “trabecular separation (Tb.Sp)” value was “small non-significant improvement” and the “trabecular thickness (Tb.Th)” value is recorded as “significant increase”. Besides, the “cAMP response of chimera RXFP2-1” value in assay [3] was “no response”.
